Reference: ChEMBL document CHEMBL4376886, “Design, Synthesis, and Evaluation of Novel Enterovirus 71 Inhibitors as Therapeutic Drug Leads for the Treatment of Human Hand, Foot, and Mouth Disease” (J Med Chem, 2020)

Key:
[1] = in vivo; conditions: Sprague-Dawley, rat, ip, 5 mg/kg
Description: Apparent clearance during terminal phase in Sprague-Dawley rat at 5 mg/kg, ip administered as single dose measured upto 24 hrs by LC-MS/MS analysis

[2] = in vivo; conditions: Sprague-Dawley, rat, ip, 5 mg/kg; remark: listed apart in the source
Description: Cmax in Sprague-Dawley rat at 5 mg/kg, ip administered as single dose measured upto 24 hrs by LC-MS/MS analysis

[3] = AUC (0 to t) in Sprague-Dawley rat at 5 mg/kg, po administered as single dose measured upto 24 hrs by LC-MS/MS analysis; format: ADME, organism-based; conditions: in vivo
[4] = Apparent half-life of the terminal disposition phase in Sprague-Dawley rat at 5 mg/kg, po administered as single dose measured upto 24 hrs by LC-MS/MS analysis; format: ADME, organism-based; conditions: in vivo, read-out: t1/2 lambda z (converted)
[5] = Subacute toxicity in PND4 Sprague-Dawley rat assessed as animal survival at 30 to 50 mg/kg/day, po administered via gavage for 14 days and measured for 28 days; format: organism-based; conditions: in vivo
[6] = Oral bioavailability in Sprague-Dawley rat at 5 mg/kg administered as single dose measured upto 24 hrs by LC-MS/MS analysis; format: ADME, organism-based; conditions: in vivo
[7] = in vivo; conditions: zebrafish
Description: Acute toxicity in juvenile zebrafish assessed as fatality rate at 150 uM after 24 hrs

[8] = Acute toxicity in juvenile zebrafish assessed as fatality rate at 200 uM after 48 hrs; conditions: in vivo
[9] = Metabolic stability in Sprague-Dawley rat liver microsomes assessed as intrinsic clearance measured upto 300 mins in presence of NADP+ by HPLC analysis
[10] = Apparent clearance during terminal phase in Sprague-Dawley rat at 5 mg/kg, po administered as single dose measured upto 24 hrs by LC-MS/MS analysis; format: ADME, organism-based; conditions: in vivo, read-out: CLz/F (converted)
[11] = Inhibition of capsid protein VP1 in Enterovirus 71 (FY)-Luc infected in human RD cells assessed as reduction in virus-induced cell death preincubated for 24 hrs followed by […] substrate addition and measured after 5 mins by chemiluminescence analysis; format: cell-based, Enterovirus A71; conditions: Enterovirus A
[12] = Acute toxicity in juvenile zebrafish assessed as fatality rate at 20 uM after 48 hrs; conditions: in vivo
[13] = Acute toxicity in juvenile zebrafish assessed as fatality rate at 50 uM after 48 hrs; conditions: in vivo
[14] = Acute toxicity in juvenile zebrafish assessed as fatality rate at 100 uM after 48 hrs; conditions: in vivo
[15] = Subacute toxicity in PND7 Sprague-Dawley rat assessed as irreversible opaqueness of lens at 30 to 50 mg/kg/day, po administered via gavage for 14 days and measured for 28 days; format: organism-based; conditions: in vivo, 672 h
[16] = Subacute toxicity in PND14 Sprague-Dawley rat assessed as hair loss at 100 mg/kg/day, po administered via gavage for 14 days and measured for 28 days; format: organism-based; conditions: in vivo, 672 h
[17] = in vivo; conditions: Sprague-Dawley, rat, ip, 5 mg/kg; remark: listed apart in the source
Description: Tmax in Sprague-Dawley rat at 5 mg/kg, ip administered as single dose measured upto 24 hrs by LC-MS/MS analysis

[18] = AUC (0 to t) in Sprague-Dawley rat at 1 mg/kg, iv administered as single dose measured upto 24 hrs by LC-MS/MS analysis; format: ADME, organism-based; conditions: in vivo
[19] = Cytotoxicity against human RD cells assessed as reduction in cell viability incubated for 24 hrs by MTT assay; conditions: rd
[20] = Acute toxicity in juvenile zebrafish assessed as fatality rate at 20 uM after 24 hrs; conditions: in vivo
[21] = in vivo; conditions: zebrafish; remark: listed apart in the source
Description: Acute toxicity in juvenile zebrafish assessed as fatality rate at 150 uM after 48 hrs

[22] = Subacute toxicity in PND7 Sprague-Dawley rat assessed as animal survival at 30 to 50 mg/kg/day, po administered via gavage for 14 days and measured for 28 days; format: organism-based; conditions: in vivo
[23] = Subacute toxicity in PND4 Sprague-Dawley rat assessed as irreversible opaqueness of lens at 30 to 50 mg/kg/day, po administered via gavage for 14 days and measured for 28 days; format: organism-based; conditions: in vivo, 672 h
[24] = Acute toxicity in juvenile zebrafish assessed as fatality rate at 200 uM after 24 hrs; conditions: in vivo
[25] = Acute toxicity in juvenile zebrafish assessed as fatality rate at 100 uM after 24 hrs; conditions: in vivo
[26] = Acute toxicity in juvenile zebrafish assessed as fatality rate at 50 uM after 24 hrs; conditions: in vivo
[27] = Subacute toxicity in PND21 Sprague-Dawley rat assessed as quadriplegia at 100 mg/kg/day, po administered via gavage for 14 days and measured for 28 days; format: organism-based; conditions: in vivo, 672 h
[28] = rat, in vivo, ip, 5 mg/kg, 24 h
Description: AUC (0 to t) in Sprague-Dawley rat at 5 mg/kg, ip administered as single dose measured upto 24 hrs by LC-MS/MS analysis

[29] = in vivo; conditions: Sprague-Dawley, rat, ip, 5 mg/kg; remark: listed apart in the source
Description: Apparent half-life of the terminal disposition phase in Sprague-Dawley rat at 5 mg/kg, ip administered as single dose measured upto 24 hrs by LC-MS/MS analysis

[30] = Subacute toxicity in PND21 Sprague-Dawley rat assessed as development of opaque lens at 100 mg/kg/day, po administered via gavage for 14 days and measured for 28 days; format: organism-based; conditions: in vivo, 672 h
[31] = Bioavailability in Sprague-Dawley rat at 5 mg/kg, ip administered as single dose measured upto 24 hrs by LC-MS/MS analysis; conditions: in vivo
[32] = Tmax in Sprague-Dawley rat at 5 mg/kg, po administered as single dose measured upto 24 hrs by LC-MS/MS analysis; format: ADME, organism-based; conditions: in vivo
[33] = Subacute toxicity in PND14 Sprague-Dawley rat assessed as quadriplegia at 100 mg/kg/day, po administered via gavage for 14 days and measured for 28 days; format: organism-based; conditions: in vivo, 672 h
[34] = Apparent half-life of the terminal disposition phase in Sprague-Dawley rat at 1 mg/kg, iv administered as single dose measured upto 24 hrs by LC-MS/MS analysis; format: ADME, organism-based; conditions: in vivo, read-out: t1/2 lambda z (converted)
[35] = Cmax in Sprague-Dawley rat at 1 mg/kg, iv administered as single dose measured upto 24 hrs by LC-MS/MS analysis; format: ADME, organism-based; set-up: dose 1 mg/kg, route intravenous; conditions: in vivo
[36] = tested on: Enterovirus A71; assay: Antiviral activity against Enterovirus 71 genotype C4 infected in BALB/c mouse assessed as protection rate at 10 mg/kg/day, ip qd for 7 days administration starting from 48 hrs post-infection and measured for 14 days; format: functional
[37] = Subacute toxicity in PND14 Sprague-Dawley rat assessed as development of opaque lens at 100 mg/kg/day, po administered via gavage for 14 days and measured for 28 days; format: organism-based; conditions: in vivo, 672 h
[38] = Subacute toxicity in PND21 Sprague-Dawley rat assessed as hair loss at 100 mg/kg/day, po administered via gavage for 14 days and measured for 28 days; format: organism-based; conditions: in vivo, 672 h
[39] = Subacute toxicity in PND14 Sprague-Dawley rat assessed as lens fiber loosening and vacuolar degeneration at 100 mg/kg/day, po administered via gavage for 14 days and measured at day 28 by hematoxylin and eosin staining based histopathological analysis; format: organism-based; conditions: in vivo, 336 h
[40] = Apparent clearance during terminal phase in Sprague-Dawley rat at 1 mg/kg, iv administered as single dose measured upto 24 hrs by LC-MS/MS analysis; format: ADME, organism-based; conditions: in vivo
[41] = Cmax in Sprague-Dawley rat at 5 mg/kg, po administered as single dose measured upto 24 hrs by LC-MS/MS analysis; format: ADME, organism-based; set-up: dose 5 mg/kg, route oral; conditions: in vivo

In the case of `CCO/N=C/c1ccc(OCCC(C)CCN2CCN(c3ccnc(N)c3)C2=O)cc1` (stereo unspecified), the CL/F at 24 h [1] is reported as 381 mL/min/kg, the Cmax at 24 h [2] is reported as 149 ng/mL and the AUCt [3] is reported as 222 ng·h/mL. It also gave a half-life [4] of 2.99 h, a survival at 672 h [5] of 100% and a bioavailability [6] of 73.3%. It also gave a mortality at 24 h, 150 µM [7] of 100%, a mortality at 48 h, 200 µM [8] of 100% and a microsomal CLint at 5 h [9] of 38.9 µL/min/mg. For the same molecule, the CL/F [10] was 1600 mL/min/kg, the EC50 [11] was 25 pM and the mortality at 48 h, 20 µM [12] was 100%. For the same molecule, the mortality at 48 h, 50 µM [13] was 100%, the mortality at 48 h, 100 µM [14] was 100% and the Activity [15] was “Toxic”. The Activity [16] was “Toxic”, the Tmax at 24 h [17] was 0.5 h and the AUCt [18] was 60.8 ng·h/mL. For the same molecule, the CC50 at 24 h [19] was 29.4 µM, the mortality at 24 h, 20 µM [20] was 100% and the mortality at 48 h, 150 µM [21] was 100%. The survival at 672 h [22] was 100%, the Activity [23] was “Toxic” and the mortality at 24 h, 200 µM [24] was 100%. For the same molecule, the mortality at 24 h, 100 µM [25] was 100%, the mortality at 24 h, 50 µM [26] was 100% and the Activity [27] was “Toxic”. For the same molecule, the AUCt [28] was 258 ng·h/mL, the half-life at 24 h [29] was 2.64 h and the Activity [30] was “Toxic”. For the same molecule, the bioavailability at 24 h [31] was 85%, the Tmax [32] was 1 h and the Activity [33] was “Toxic”. It also gave a half-life [34] of 0.5 h, a Cmax [35] of 23.3 ng/mL and an Activity [36] of 100%. The Activity [37] was “Toxic”, the Activity [38] was “Toxic” and the Activity [39] was “Toxic”. It also gave a CLz/F [40] of 13.2 mL/min/kg and a Cmax [41] of 81.8 ng/mL.
